Test results: patent US6900026B2, “Methods for identifying compounds as antioxidants” (priority 1996, dated 2005)

What was measured:
Sod2CJE(−/−) animals [1] = experiment: Behavioral analysis and neuropathology of treated Sod2CJE(−/−) animals; assay type: in vivo; settings: for neurological and behavioral phenotype: treated Sod2CJE(−/−) mice
Method: Treated Sod2CJE(−/−) animals were observed daily from 10 days through to greater than five weeks for behavioral abnormalities compared to litter mate controls. Daily video recordings of up to 10 minutes were made to longitudinally track the development of behavioral changes. A total of 187 video recordings were made of 63 animals from 10 to 23 days of age.
For pathology, the brains were removed from the sacrificed animals and fixed in 10% buffered formalin for up to 7 days. They were then processed, embedded, and sectioned. In some cases representative sections were made every 20 sections or so at 7 microns thickness throughout the brain and stained with hematoxylin and eosin for examination by light microscopy. In other cases, the entire brain was sectioned at 8 microns throughout. Fifteen Sod2CJE(−/−) brains between 11 and 23 days of age were examined by hematoxylin and eosin staining and light microscopy in coronal, sagittal, or horizontal orientations with 17 controls in a blinded study (4 heterozygotes and 6 wild-types treated; and 2 heterozygotes and 5 wild-types untreated).
During the course of an experiment, each mouse is evaluated daily for weight, lethargy, lack of appetite, its vital signs and for any indication of neurological disorders (observed for circling behavior, dystonia, trembling or the like. Video records can be made for later evaluation, for example for side-by-side comparisons or for observing changes over time. Cardiac histopathology and central nervous system tissue analysis are carried out after death of the animal or after sacrifice of the animal.

[2] = tested on: succinate dehydrogenase (SDH, Complex II); experiment: Histochemical staining of succinate dehydrogenase (SDH, Complex II) in tissue of treated MnSOD-deficient homozygotes; assay type: in vivo, mouse
Source text: Fat accumulates in the liver, where it can be detected by Oil Red O staining. […] By contrast, in Euk-8 treated animals both the lipid accumulation in the liver and SDH inhibition are rescued.

Sod2CJE(−/−) animals [3] = experiment: Lipid in liver by Oil red-O staining, treated Sod2CJE(−/−) animals; assay type: in vivo, mouse; set-up: key to Lipid Mode (score): 0=no observable lipid in sections; 1=mild diffuse speckled distribution of lipid; 2=more intense speckled pattern; 3=coalescence of small lipid droplets into large intercellular droplets; 4=massive intercellular lipid droplet accumulation; settings: for accumulation of lipid in the liver: treated MnSOD-deficient homozygotes, qualitative; for Lipid % Control / Lipid Mean (score) / Lipid Mode (score): MnTBAP treated Sod2CJE(−/−); for Lipid % Control: control = untreated (−/−) 6-10 days; for Lipid Mean (score) / Lipid Mode (score): score 0-4
Source text: (see also Table 2). […] The level of lipid in liver sections was scored as follows: 0=no observable lipid in sections, 1=mild diffuse speckled distribution of lipid, 2=more intense speckled pattern, 3=coalescence of small lipid droplets into large intercellular droplets, and 4=massive intercellular lipid droplet accumulation. Wild-type or heterozygotes treated with MnTBAP for 3 weeks had no observable difference in the morphology of the liver compared to untreated controls (+/+or +/−). The livers of 25 MnTBAP treated Sod2CJE(−/−) animals were examined at 12, 14 and 17 days of age (Table 2) and compared with treated wild type animals.
Assessment of the effect of MnTBAP treatment on liver morphology was carried out by blind assessment of wild-type and heterozygous animals chronically treated with compound for 3 weeks. Hematoxylin and Eosin stained sections from 27 treated homozygous normal (+/+) and heterozygous (+/−) animals were compared with 2 untreated control animals. To evaluate lipid in the liver of treated homozygous mutant MnSOD(−/−) animals, 8 u frozen sections were prepared and stained with Oil red O [Li et al. (1995) supra]. Each section was evaluated for the quantity and size of lipid droplets by arbitrarily scoring with a numerical value (Table 2). The ratings of multiple animals were then averaged.

Sod2CJE(−/−) mice = experiment: Survival (lifespan) of Sod2CJE(−/−) mice given daily intraperitoneal test compound; assay type: in vivo, mouse; settings: for mean life-span: Sod2CJE(−/−) pups, Euk-8 daily 30 mg/kg, MnTBAP-treated pups
Method: Mice lacking functional MnSOD have been described by Li et al. (1995) Nature Genetics 11:376-381, incorporated herein by reference. The genotypes of one-day-old pups are determined by genetic analysis of tissue surgically excised from the toe or tail tip (2-3 mm). In these mice the third exon of the Sod2 gene has been deleted, thus, destroying the ability to synthesize an active mitochondrial MnSOD.
Litters were grouped into two sizes: large, >6 pups/litter of mutant, heterozygous and normal pups; and small, ≦6 Sod2CJE(−/−) pups/litter, in which the wild type and heterozygous pups were removed at three days of age to ensure that the homozygous mutant pups had unrestricted access to food and nurturing.
(§1) In most experiments, MnTBAP was prepared for injection by dissolving in 0.1 M NaOH, diluted with sterile water to a dosage level of 5 mg MnTBAP/kg, and administered by daily intra-peritoneal (IP) injections of between 10 and 45 μl, 2 hours post weighing, from 3 days of age. In addition to homozygous mutant animals, both heterozygotes and wild-type animals were injected to serve as controls. Wild-type or heterozygous Sod2CJE pups were sacrificed at the same age as Sod2CJE(−/−) pups to serve as controls.
Mouse pups are injected intraperitoneally with test compounds with a 50 microliter Hamilton syringe and a 31 G needle. The maximum volume administered to pups younger than 6 days of age is 20 μl. Injections are given daily, at the same time per day ±2 hours.
The MnTBAP stock solution is diluted down to the administered dose, which is dependent on body weight. For MnTBAP, the dosage is 5 mg/kg per day. Pups are weighed daily to allow calculation of the appropriate dosage.
Survival analysis was carried out by examining the animals daily to determine mortality, and entering the results into a life-table in the program Statistica (Statsoft, Tulsa, Okla.). Comparison between groups was carried out using the Kaplan and Meier survival function, non-parametric t-tests, and the Gehans Wilcoxon statistic from within the program to compare groups.
In general, experiments are carried out with Sod2CJE(−/−) mice, starting at 3 days of age, and the mice are weighed and divided into test and control groups. Test mice receive the compound for which evaluation as an antioxidant is desired at a dosage which is below the level of toxicity. Unless otherwise indicated, the test compound is administered in a pharmaceutically acceptable carrier by the intraperitoneal route. Unless otherwise determined to be advantageous, the test compound is administered at the same time each day (±2 hours).

Sod2CJE(−/−) animals [4] = experiment: Cardiac measurements and histology in treated Sod2CJE(−/−) animals; assay type: in vivo, mouse; settings: 20-21 days of age
Method: Cardiac dimensions were measured at 21 days of age for wild-type and heterozygous animals. These were compared with homozygous mutant animals treated with MnTBAP as described [Li et al. (1995) supra].

cells = settings: in vitro; cited from earlier work
[5] = in vitro; cited from earlier work
[6] = mice, after the barrier is established at about 7-12 days of age; cited from earlier work
[7] = Transmission of orally administered compound to the milk of nursing mothers; assay type: in vivo, mouse
Source text: The skilled artisan understands how to test a particular compound for its toxicity in a particular mammal, for its ability to cross the blood-brain barrier and for its ability to enter the bloodstream and/or the cerebrospinal fluid. Preferred compounds are those which readily enter circulation and the central nervous system so that maximum amelioration of any disorder or disease resulting from oxidative damage, especially from superoxide radical.

[8] = tested on: control animals (+/+, +/−); experiment: Pathology of liver, brain and heart in treated control animals (+/+, +/−); assay type: in vivo, mouse; settings: control animals (+/+, +/−) treated with MnTBAP
Method: as §1
For pathology, the brains were removed from the sacrificed animals and fixed in 10% buffered formalin for up to 7 days. They were then processed, embedded, and sectioned. In some cases representative sections were made every 20 sections or so at 7 microns thickness throughout the brain and stained with hematoxylin and eosin for examination by light microscopy. In other cases, the entire brain was sectioned at 8 microns throughout. […]
Assessment of the effect of MnTBAP treatment on liver morphology was carried out by blind assessment of wild-type and heterozygous animals chronically treated with compound for 3 weeks. […] Each section was evaluated for the quantity and size of lipid droplets by arbitrarily scoring with a numerical value (Table 2). […]

[9] = SOD2−/− mice treated with free radical scavenging compounds (Table 4)
[10] = Sod2CJE(−/−), Large litter size (>6 pups), with MnTBAP, N=16
[11] = Sod2CJE(−/−), Small litter size (≦6 pups), with MnTBAP, N=15
[12] = Sod2CJE(−/−), all litter sizes, with MnTBAP 5 mg/kg daily IP, N=31, days of age

## [Cl-].[Mn+3].[O-]c1ccccc1C=NCCN=Cc1ccccc1[O-] [Euk-8]
Sod2CJE(−/−) animals [1]; concluded from beneficial effects on neuronal function in Sod2CJE(−/−) mouse
  crossing of the blood brain barrier: crosses the blood brain barrier
Sod2CJE(−/−) animals [1]
  neurological and behavioral phenotype: rescue of the neurological and behavioral phenotype
Sod2CJE(−/−) animals [1]; treated Sod2CJE(−/−) mouse, at 17 days
  spongiform encephalopathy: absent
[2]
  tissue SDH inhibition: rescued
Sod2CJE(−/−) animals [3]
  accumulation of lipid in the liver: rescued
Sod2CJE(−/−) mice; [9]
  Mean Lifespan: 22 days
Sod2CJE(−/−) mice
  mean life-span: 22 days

## O=C(O)c1ccc(-c2c3nc(c(-c4ccc(C(=O)O)cc4)c4ccc([nH]4)c(-c4ccc(C(=O)O)cc4)c4nc(c(-c5ccc(C(=O)O)cc5)c5ccc2[nH]5)C=C4)C=C3)cc1.[Mn] [MnTBAP, Manganese 5,10,15,20-tetrakis(4-benzoic acid) porphyrin]
Sod2CJE(−/−) animals [4]
  effect on cardiac defect (dilated cardiomyopathy): prevented the cardiac defect
Sod2CJE(−/−) animals [1]
  neurological and behavioral phenotype: progressive motor impairment
cells
  permeability to cells: permeable to cells
[5]
  superoxide-degrading activity relative to Sod1/Sod2 when compared by weight: about 10%
[6]
  crossing of the blood-brain barrier: does not cross the blood-brain barrier
[2]
  tissue SDH inhibition: still inhibited
Sod2CJE(−/−) animals [3]; 25 treated animals examined at 12, 14 and 17 days of age (2/25)
  proportion of treated Sod2CJE(−/−) animals with liver lipid levels comparable to untreated Sod2CJE(−/−) animals of 6-10 days: 8%
Sod2CJE(−/−) animals [3]; 12 days old, n=9
  Lipid % Control: 23%
  Lipid Mean (score): 0.9
  Lipid Mode (score): 0
Sod2CJE(−/−) animals [3]; 14 days old, n=8
  Lipid % Control: 23%
  Lipid Mean (score): 0.9
  Lipid Mode (score): 0.5
Sod2CJE(−/−) animals [3]; 17 days old, n=8
  Lipid % Control: 40%
  Lipid Mean (score): 1.6
  Lipid Mode (score): 2
Sod2CJE(−/−) animals [3]
  accumulation of lipid in the liver: reduced
Sod2CJE(−/−) mice; MnSOD(−/−) mice, 5 mg/kg daily intraperitoneal, all litters, n=31, ±SD
  mean age of survival: 16.4 ± 5.8 days
Sod2CJE(−/−) mice; MnSOD(−/−) mice, 5 mg/kg daily intraperitoneal, n=31
  proportion of mice that lived to greater than or equal to 20 days of age: 70%
Sod2CJE(−/−) mice; [9]
  Mean Lifespan: 14 days
Sod2CJE(−/−) mice
  mean life-span: 16 days
Sod2CJE(−/−) mice; [10]
  Mean Lifespan: 16.1
  Median (lifespan): 21
Sod2CJE(−/−) mice; [11]
  Mean Lifespan: 16.6
  Median (lifespan): 19
Sod2CJE(−/−) mice; [12]
  Mean Lifespan: 16.4
  Median (lifespan): 20
Sod2CJE(−/−) mice; litters of more than six pups (unrestricted), ±SD
  mean age of survival: 16.1 ± 6.6 days
Sod2CJE(−/−) mice; litters with six or less pups (restricted), ±SD
  mean survival: 11.4 ± 4.8 days
[7]
  transmission to the milk of nursing mothers: insufficient transmission
[8]
  toxicity (pathological changes in liver or brain): not toxic
